Measured values published in US12428406B2 (PMV Pharmaceuticals, Inc., priority 2019, dated 2025).

biological target: T1, p53 Y220C (Homo sapiens, UniProt P04637, Y220C); assay: In vitro DNA binding activity assay (HTRF / TR-FRET): stabilization of p53 Y220C and increase of its DNA binding activity; format: biochemical; details: recombinant His-tagged p53 Y220C DNA binding domain (aa 94-312), biotin-labeled consensus DNA, incubated at 27° C. or 29° C. for 60 min
T1 construct: The recombinant protein was a truncation mutant containing only amino acids 94-312 of p53; made in house; host or cells: E. coli
T1 sequence (P04637 94-312, change not shown): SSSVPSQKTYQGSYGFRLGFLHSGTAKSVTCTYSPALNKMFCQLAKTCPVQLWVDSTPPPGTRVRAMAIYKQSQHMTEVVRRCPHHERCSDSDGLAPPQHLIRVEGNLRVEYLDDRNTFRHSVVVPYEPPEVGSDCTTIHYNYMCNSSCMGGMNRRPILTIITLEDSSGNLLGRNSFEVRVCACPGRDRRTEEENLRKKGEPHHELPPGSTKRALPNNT
Outline: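 Compound effect on DNA binding of recombinant His-p53 Y220C (E. coli) to biotin-labeled consensus DNA, expressed as SC150, the concentration giving 50% increase versus untreated. Serial 3-fold DMSO dilutions of 4.5 mM stocks; room-temperature steps of 15 then 20 min.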

Row | SMILES | SC150 (concentration of the compound required to increase the DNA binding activity by 50%)
1 | CN1CCC(Nc2cccc3c2cc(C#CCNc2cccc(S(C)(=O)=O)c2)n3CC(F)(F)F)CC1 [Compound 507A, 2-{3-[(3-methanesulfonylphenyl)amino]prop-1-yn-1-yl}-N-(1-methylpiperidin-4-yl)-1-(2,2,2-trifluoroethyl)-1H-indol-4-amine] | ++ (++ = 0.05 μM ≤ SC150 < 0.1 μM)
2 | COc1cc(S(N)(=O)=O)ccc1NCC#Cc1cc2c(N[C@H]3CC[C@H](N4CCC5(CCOCC5)CC4)CC3)cccc2n1CC(F)(F)F [Compound 418A, 3-methoxy-4-{[3-(4-{[(1R,4R)-4-{3-oxa-9-azaspiro[5.5]undecan-9-yl}cyclohexyl]amino}-1-(2,2,2-trifluoroethyl)-1H-indol-2-yl)prop-2-yn-1-yl]amino}benzene-1-sulfonamide] | + (+ = 0 μM ≤ SC150 < 0.05 μM)
3 | CCC(=O)OC(COC)CN1CCC(Nc2cccc3c2cc(C#CCNc2ccc(C(=O)NC)cc2OC)n3CC(F)(F)F)CC1 (stereo not drawn) [Compound 657A, 1-methoxy-3-(4-{[2-(3-{[2-methoxy-4-(methylcarbamoyl)phenyl]amino}prop-1-yn-1-yl)-1-(2,2,2-trifluoroethyl)-1lH-indol-4-yl]amino}piperidin-1-yl)propan-2-yl propanoate] | + (+ = 0 μM ≤ SC150 < 0.05 μM)
4 | COc1cc(C(=O)O)ccc1NCC#Cc1cc2c(N[C@H]3CCN(C)C[C@H]3F)cccc2n1CC(F)(F)F (racemic) [Compound 779A, rac-4-{[3-(4-{[(3R,4S)-3-fluoro-1-methylpiperidin-4-yl]amino}-1-(2,2,2-trifluoroethyl)-1H-indol-2-yl)prop-2-yn-1-yl]amino}-3-methoxybenzoic acid] | + (+ = 0 μM ≤ SC150 < 0.05 μM)
5 | COc1cc(S(C)(=O)=O)cc(F)c1NCC#Cc1cc2c(NC3CCN(C)CC3)cccc2n1CC(F)(F)F [Compound 519A] | ++++ (++++ = 0.2 μM ≤ SC150 < 1 μM)
6 | COc1cc(S(N)(=O)=O)ccc1NCC#Cc1cc2c(N[C@H]3CCN[C@@H](C)C3)cccc2n1CC(F)(F)F [Compound 464A, 3-methoxy-4-{[3-(4-{[(2S,4S)-2-methylpiperidin-4-yl]amino}-1-(2,2,2-trifluoroethyl)-1H-indol-2-yl)prop-2-yn-1-yl]amino} benzene-1-sulfonamide] | + (+ = 0 μM ≤ SC150 < 0.05 μM)
7 | CNC(=O)c1ccc(NCC#Cc2cc3c(N[C@H]4CC[C@H](N5CC6(COC6)C5)CC4)cccc3n2CC(F)(F)F)c(OCC#N)c1 [Compound 242A, 3-(cyanomethoxy)-N-methyl-4-{[3-(4-{[(1R,4R)-4-{2-oxa-6-azaspiro[3.3]heptan-6-yl}cyclohexyl]amino}-1-(2,2,2-trifluoroethyl)-1H-indol-2-yl)prop-2-yn-1-yl]amino}benzamide] | + (+ = 0 μM ≤ SC150 < 0.05 μM)
8 | CNC(=O)c1ccc(NCC#Cc2cc3c(N[C@H]4CC[C@H](N5CCOCC5)CC4)cccc3n2CCF)c(OC)c1 [Compound 175A, 4-({3-[1-(2-fluoro-ethyl)-4-{[(1R,4R)-4-(morpholin-4-yl)cyclohexyl]amino}-1H-indol-2-yl]prop-2-yn-1-yl}amino)-3-methoxy-N-methylbenzamide] | ++ (++ = 0.05 μM ≤ SC150 < 0.1 μM)
9 | COc1cc(C(=O)NCCN2CCOCC2)ccc1NCC#Cc1cc2c(N[C@@H]3CCN(C)C[C@@H]3F)cccc2n1CC(F)(F)F [Compound 924A, 4-{[3-(4-{[(3S,4R)-3-fluoro-1-methylpiperidin-4-yl]amino}-1-(2,2,2-trifluoroethyl)-1H-indol-2-yl)prop-2-yn-1-yl]amino}-3-methoxy-N-[2-(morpholin-4-yl)ethyl]benzamide] | + (+ = 0 μM ≤ SC150 < 0.05 μM)
10 | COc1cc(S(N)(=O)=O)ccc1NCC#Cc1cc2c(NC3CCOCC3)c(OC)ccc2n1CC(F)(F)F [Compound 1010A, 3-methoxy-4-[(3-{5-methoxy-4-[(oxan-4-yl)amino]-1-(2,2,2-trifluoroethyl)-1H-indol-2-yl}prop-2-yn-1-yl)amino]benzene-1-sulfonamide] | ++++ (++++ = 0.2 μM ≤ SC150 < 1 μM)
11 | COCC(O)CN1CCC(Nc2cccc3c2c(C)c(C#CCNc2ccc(S(C)(=O)=O)cc2OC)n3CC(F)(F)F)CC1 (stereo not drawn) [Compound 676A, 1-{4-[(2-{3-[(4-methanesulfonyl-2-methoxyphenyl)amino]prop-1-yn-1-yl}-3-methyl-1-(2,2,2-trifluoroethyl)-1H-indol-4-yl)amino]piperidin-1-yl}-3-methoxypropan-2-ol] | +++ (+++ = 0.1 μM ≤ SC150 < 0.2 μM)
12 | COc1cc(S(N)(=O)=O)ccc1NCC#Cc1cc2c(N[C@H]3CC[C@@H](N(CCO)CCO)CC3)cccc2n1CC(F)(F)F [Compound 45A, 3-methoxy-4-{[3-(4-{[(1S,4S)-4-[bis(2-hydroxyethyl)amino]cyclohexyl]amino}-1-(2,2,2-trifluoroethyl)-1H-indol-2-yl)prop-2-yn-1-yl]amino}benzene-1-sulfonamide] | + (+ = 0 μM ≤ SC150 < 0.05 μM)
13 | CNC(=O)c1ccc(NCC#Cc2cc3c(NC4CCN(CC(O)COC)CC4)cccc3n2CC(F)(F)F)c(OCCOC)c1 (stereo not drawn) [Compound 653A, 4-{[3-(4-{[1-(2-hydroxy-3-methoxypropyl)piperidin-4-yl]amino}-1-(2,2,2-trifluoroethyl)-1H-indol-2-yl)prop-2-yn-1-yl]amino}-3-(2-methoxyethoxy)-N-methylbenzamide] | + (+ = 0 μM ≤ SC150 < 0.05 μM)
14 | COCC(O)CN1CCC(Nc2cccc3c2cc(C#CCNc2ccc(S(C)(=O)=O)cc2O)n3CC(F)(F)F)CC1 (stereo not drawn) [Compound 621A, 2-{[3-(4-{[1-(2-hydroxy-3-methoxypropyl)piperidin-4-yl]amino}-1-(2,2,2-trifluoroethyl)-1H-indol-2-yl)prop-2-yn-1-yl]amino}-5-methanesulfonylphenol] | + (+ = 0 μM ≤ SC150 < 0.05 μM)
15 | COc1cc(S(N)(=O)=O)ccc1NCC#Cc1cc2c(N[C@@H]3CCNC[C@@H]3F)cccc2n1CC(F)(F)F [Compound 845A] | + (+ = 0 μM ≤ SC150 < 0.05 μM)
16 | COc1cc(S(N)(=O)=O)ccc1NCC#Cc1cc2c(NC3CCN(C[C@H](O)CO)CC3)cccc2n1CC(F)(F)F [Compound 549A, (rac)-4-({3-[4-({1-[2,3-dihydroxypropyl]piperidin-4-yl}amino)-1-(2,2,2-trifluoroethyl)-1H-indol-2-yl]prop-2-yn-1-yl}amino)-3-methoxybenzene-1-sulfonamide] | + (+ = 0 μM ≤ SC150 < 0.05 μM)
17 | CNC(=O)c1ccc(NCC#Cc2cc3c(NC4CCN(C(C)C)CC4)cccc3n2CC(F)(F)F)c(OC)c1 [Compound 539A, 3-methoxy-N-methyl-4-{[3-(4-{[1-(propan-2-yl)piperidin-4-yl]amino}-1-(2,2,2-trifluoroethyl)-1H-indol-2-yl)prop-2-yn-1-yl]amino}benzamide] | + (+ = 0 μM ≤ SC150 < 0.05 μM)
18 | COCCN1CC[C@H](Nc2cccc3c2cc(C#CCNc2ccc(C(=O)O)cc2OC)n3CC(F)(F)F)[C@H](F)C1 [Compound 904A] | + (+ = 0 μM ≤ SC150 < 0.05 μM)
19 | COc1cc(S(C)(=O)=O)ccc1NCC#Cc1cc2c(N[C@H]3CCN(CCO)C[C@H]3F)cccc2n1CC(F)(F)F [Compound 854A, 2-[(3R,4S)-3-fluoro-4-[(2-{3-[(4-methanesulfonyl-2-methoxyphenyl)amino]prop-1-yn-1-yl}-1-(2,2,2-trifluoroethyl)-1H-indol-4-yl)amino]piperidin-1-yl]ethan-1-ol] | + (+ = 0 μM ≤ SC150 < 0.05 μM)
20 | COc1cc(C(N)=O)ccc1NCC#Cc1cc2c(N[C@H]3CC[C@@H](N4CCOCC4)CC3)cccc2n1CC(F)(F)F [Compound 171A, 3-methoxy-4-{[3-(4-{[(1S,4S)-4-(morpholin-4-yl)cyclohexyl]amino}-1-(2,2,2-trifluoroethyl)-1H-indol-2-yl)prop-2-yn-1-yl]amino}benzamide] | + (+ = 0 μM ≤ SC150 < 0.05 μM)
21 | CNS(=O)(=O)c1ccc(NCC#Cc2cc3c(N[C@H]4CC[C@H](N5CCOCC5)CC4)cccc3n2CC(F)(F)F)c(OC)c1 [Compound 187A, 3-methoxy-N-methyl-4-{[3-(4-{[(1R,4R)-4-(morpholin-4-yl)cyclohexyl]amino}-1-(2,2,2-trifluoroethyl)-1H-indol-2-yl)prop-2-yn-1-yl]amino}benzene-1-sulfonamide] | + (+ = 0 μM ≤ SC150 < 0.05 μM)
22 | COCC(CN1CCC(Nc2cccc3c2cc(C#CCNc2ccc(S(N)(=O)=O)cc2OC)n3CC(F)(F)F)CC1)OC (stereo not drawn) [Compound 581A, 4-{[3-(4-{[1-(2,3-dimethoxypropyl)piperidin-4-yl]amino}-1-(2,2,2-trifluoroethyl)-1H-indol-2-yl)prop-2-yn-1-yl]amino}-3-methoxybenzene-1-sulfonamide] | + (+ = 0 μM ≤ SC150 < 0.05 μM)
23 | CCC(=O)NS(=O)(=O)c1ccc(NCC#Cc2cc3c(NC4CCN(CC(O)COC)CC4)cccc3n2CC(F)(F)F)c(OC)c1 (stereo not drawn) [Compound 607A, N-(4-{[3-(4-{[1-(2-hydroxy-3-methoxypropyl)piperidin-4-yl]amino}-1-(2,2,2-trifluoroethyl)-1H-indol-2-yl)prop-2-yn-1-yl]amino}-3-methoxybenzenesulfonyl) propanamide] | + (+ = 0 μM ≤ SC150 < 0.05 μM)
24 | COc1cc(S(N)(=O)=O)ccc1NCC#Cc1cc2c(NC3CCN(C(=O)C(C)C)CC3)cccc2n1CC(F)(F)F [Compound 753A] | + (+ = 0 μM ≤ SC150 < 0.05 μM)
